In patent US20090306159A1, “Inhibition of Intermediate-Conductance Calcium Activated Potassium Channels in the Treatment and/or Prevention of Atherosclerosis” (The Regents of the University, priority 2005, published 2009):

How the values were obtained:
[1] = system: human coronary artery smooth muscle cells (HCSMCs); test: Cell proliferation assay (cell count with hemocytometer) in PDGF-stimulated HCSMCs; type: cell-based; conditions: for cell number of HCSMCs: 48 hours, n=7
Procedure: (§1) Cell proliferation assays: Cell proliferation assays were performed as previously reported. Briefly, quiescent HCSMCs seeded at a density of 4×10^4/well in 6-well plates were stimulated by 20 ng/mL PDGF in the presence or absence of 10^−7 M TRAM-34, a selective IKCa blocker. Forty eight hours after stimulation, the number of cells was counted with a hemocytometer (MARIENFELD, Lauda-Konigshofen Germany). In another set of experiments, a BrdU cell proliferation assay was also performed with quiescent cells in 96-well plates at a density of 1×10^4/well according to the manufacturer's instructions (Colorimetric Cell Proliferation ELISA, Roche, Penzberg Germany). In this study, BrdU (10^−5 M in medium) was applied 24 hours prior to the measurements.

[2] = system: human coronary artery smooth muscle cells (HCSMCs); test: Transwell cell migration assay in HCSMCs; type: cell-based
Procedure: Cell migration assay: A Cell migration assay was carried out with the Transwell system (Corning, Acton, Mass.) as previously reported. Briefly, cells (3×10^5 cells/mL) were seeded onto the upper chamber of Transwells, and the lower chamber was filled with serum-free medium containing 20 ng/ml PDGF. TRAM-34 (10^−8˜10^−7 M) was added to both chambers. After 8-hour stimulation, migrated cells were fixed and stained with the Diff-Quick Stain (IMEB Inc. Chicago, Ill.) and counted under a microscope.

c-fos = test: Western blot of c-fos expression in HCSMCs; type: cell-based, human; conditions: PDGF + TRAM-34
Source text: Western blot analysis: Total cell lysates or membrane fractions were harvested and protein samples separated on an electrophoresis gel by SDS-PAGE and then transferred to a PVDF membrane. The gels were stained in Coomassie blue to confirm equal protein loading. Membranes were blocked with 10% nonfat dried milk, blotted with primary antibodies (BKCa α-subunit [Affinity BioReagents], c-fos [Santa Cruz, Inc.] and IKCa) and subsequently probed with a horseradish peroxidase-labeled donkey anti-rabbit antibody (1:5,000˜10,000 [Santa Cruz, Inc.]). The bound antibody was detected by chemiluminescence (ECL Plus, Amersham). The polyclonal primary antibody against human and mouse IKCa was obtained from sera of rabbits immunized using oligopeptides with following amino acids sequences; H-LNASYRSIGALNQVRC-NH2 (S4-5 of human and mouse IKCa).

[3] = Body weight, heart weight, blood pressure, heart rate, plasma cholesterol and deaths in treated mice; type: in vivo, mouse
Procedure: Mouse treatment: C57BL/6J male mice (wild type [WT] n=11 and ApoE deficient type [EKO] n=38, The Jackson Laboratory) were used. […] Littermate war mice were used as the control group in the experiments. Mice were provided diet and water ad libitum and maintained on a 12-hour light/dark cycle. All animal experiments were conducted according to the Guidelines for Animal Experiments at Medical College of Wisconsin.
Hemodynamic analysis of mice: At 16 weeks of age, mice were anesthetized, and right femoral arteries were cannulated for continuous measurement of arterial pressure and heart rate (pressure transducer; Bioresearch Center, Nagoya, Japan) and recorded continuously by computer for 30 min.
Plasma lipid analysis: Plasma was obtained by centrifugation of blood and stored at −80° C. until each assay was performed. Plasma cholesterol levels were analyzed by General Medical Laboratories (Madison, Wis.).

ApoE knockout mice = test: Development of atherosclerosis in ApoE knockout mice on high-cholesterol diet (long-term IKCa1 blockade); type: in vivo, mouse; conditions: ApoE KO mice, long-term TRAM-34
Procedure: Mouse treatment: C57BL/6J male mice (wild type [WT] n=11 and ApoE deficient type [EKO] n=38, The Jackson Laboratory) were used. EKO mice were weaned at 4 weeks of age onto a high-cholesterol diet (1.3% cholesterol; TD 96121, Harian/Teklad) and treated with daily subcutaneous injection of TRAM-34 (120 mg/kg/day) or vehicle (peanut oil) for 12 weeks. Littermate war mice were used as the control group in the experiments. Mice were provided diet and water ad libitum and maintained on a 12-hour light/dark cycle. All animal experiments were conducted according to the Guidelines for Animal Experiments at Medical College of Wisconsin.
Histological analysis of atherosclerosis in mouse aortas: Isolation of aortas and quantification of atherosclerosis were performed as previously described. Briefly, aortas (from aortic arch to iliac bifurcation) were opened longitudinally, pinned onto a silicon-coated dish, fixed with 4% paraformaldehyde, and stained in 1.0% (v/w) Sudan III solution (The Science Company, Denver, Colo.). Images were acquired using a digital camera (C-755, Minolta), and the surface area of atherosclerotic lesions was measured as the percentage of total area of the opened aorta using imaging software, MetaMorph (Universal Imaging Corp).

[4] = system: human coronary artery smooth muscle cells (HCSMCs); test: BrdU cell proliferation assay (DNA synthesis) in HCSMCs; type: cell-based
Procedure: as §1

BKCa [5] = target: BKCa (Homo sapiens, UniProt Q12791); test: Videomicroscopy: vasodilation of human coronary arterioles to BKCa opener; conditions: endothelium-denuded human vessels, 3×10^-6 M, n=3
BKCa (Homo sapiens, UniProt Q12791), sequence (Q12791 whole entry): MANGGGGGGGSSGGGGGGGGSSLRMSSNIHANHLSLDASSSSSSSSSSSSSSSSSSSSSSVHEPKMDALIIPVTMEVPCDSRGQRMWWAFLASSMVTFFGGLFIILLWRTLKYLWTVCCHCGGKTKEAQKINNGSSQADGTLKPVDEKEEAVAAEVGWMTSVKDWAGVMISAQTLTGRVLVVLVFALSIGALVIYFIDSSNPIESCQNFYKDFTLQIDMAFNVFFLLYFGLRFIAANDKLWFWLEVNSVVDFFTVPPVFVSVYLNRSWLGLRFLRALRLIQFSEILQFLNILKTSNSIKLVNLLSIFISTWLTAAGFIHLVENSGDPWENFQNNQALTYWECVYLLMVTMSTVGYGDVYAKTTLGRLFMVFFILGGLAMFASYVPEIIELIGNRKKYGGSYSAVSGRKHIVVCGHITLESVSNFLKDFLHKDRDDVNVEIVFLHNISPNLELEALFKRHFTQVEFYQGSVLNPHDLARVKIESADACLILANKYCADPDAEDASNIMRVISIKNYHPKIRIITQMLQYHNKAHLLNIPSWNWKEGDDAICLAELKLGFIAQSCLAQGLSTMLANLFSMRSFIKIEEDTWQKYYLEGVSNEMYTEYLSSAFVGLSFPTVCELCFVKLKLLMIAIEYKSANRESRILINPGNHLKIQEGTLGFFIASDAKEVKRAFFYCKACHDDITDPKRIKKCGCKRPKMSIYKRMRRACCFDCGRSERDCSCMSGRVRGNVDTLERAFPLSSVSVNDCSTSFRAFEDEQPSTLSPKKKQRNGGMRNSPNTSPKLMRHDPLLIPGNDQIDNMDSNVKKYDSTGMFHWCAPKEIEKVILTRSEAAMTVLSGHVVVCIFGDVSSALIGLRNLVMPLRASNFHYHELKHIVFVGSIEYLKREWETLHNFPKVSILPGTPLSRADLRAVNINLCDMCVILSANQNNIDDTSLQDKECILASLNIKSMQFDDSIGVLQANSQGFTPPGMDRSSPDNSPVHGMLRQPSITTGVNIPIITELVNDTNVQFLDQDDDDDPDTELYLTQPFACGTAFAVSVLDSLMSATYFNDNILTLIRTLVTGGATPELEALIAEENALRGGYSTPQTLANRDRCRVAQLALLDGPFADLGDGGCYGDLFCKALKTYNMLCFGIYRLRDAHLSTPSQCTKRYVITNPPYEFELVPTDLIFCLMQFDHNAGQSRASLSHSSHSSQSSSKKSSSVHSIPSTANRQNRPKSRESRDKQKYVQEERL
BKCa (Homo sapiens, UniProt Q12791), sequence (Q16558 whole entry partner): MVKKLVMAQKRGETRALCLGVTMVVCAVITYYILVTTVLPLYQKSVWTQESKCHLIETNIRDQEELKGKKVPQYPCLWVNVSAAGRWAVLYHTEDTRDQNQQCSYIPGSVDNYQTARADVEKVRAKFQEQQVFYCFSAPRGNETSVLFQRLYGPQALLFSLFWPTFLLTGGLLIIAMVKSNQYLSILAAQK
Procedure: (§2) Videomicroscopy: The preparation for videomicroscopy has been previously described. Vasomotor and endothelial function was confirmed by measuring constriction to 50 mM KCl and dilation to acetylcholine (ACh, 10^−4 M, mouse vessels pressurized at 40 mmHg) or to bradykinin (10^−7 mol/L, human vessels at 60 mmHg). Vessels were preconstricted with U46619 (10^−9˜10^−8 M for mouse vessels) or ACh (10^−8˜5×10^−7 M for human vessels) to adjust tone to a level between 30% to 50% of passive diameter. […] In some experiments, endothelial cells (ECs) were denuded.
(§3) Statistical Analysis: All data are expressed as mean±SE. […] Percent dilation was calculated as the percent change from the preconstricted diameter to the passive diameter in Ca^2+-free Krebs containing 10^−4 M papaverine. Percent constriction or basal tone was determined by calculating the percent reduction in the passive diameter. To compare dose-response relationships between treatment groups, a two-way ANOVA supported by a Bonferroni post hoc test was used. Statistical comparisons of maximal percent vasodilation and basal tone under different treatments were performed by paired Student's t test. […] Statistical significance was defined as a value of P<0.05.

BKCa [6] = target: BKCa (Mus musculus, UniProt Q08460); test: Videomicroscopy: vasodilation of mouse carotid artery segments to BKCa opener; conditions: endothelium-denuded carotid artery segments
BKCa (Mus musculus, UniProt Q08460), sequence (Q08460 whole entry): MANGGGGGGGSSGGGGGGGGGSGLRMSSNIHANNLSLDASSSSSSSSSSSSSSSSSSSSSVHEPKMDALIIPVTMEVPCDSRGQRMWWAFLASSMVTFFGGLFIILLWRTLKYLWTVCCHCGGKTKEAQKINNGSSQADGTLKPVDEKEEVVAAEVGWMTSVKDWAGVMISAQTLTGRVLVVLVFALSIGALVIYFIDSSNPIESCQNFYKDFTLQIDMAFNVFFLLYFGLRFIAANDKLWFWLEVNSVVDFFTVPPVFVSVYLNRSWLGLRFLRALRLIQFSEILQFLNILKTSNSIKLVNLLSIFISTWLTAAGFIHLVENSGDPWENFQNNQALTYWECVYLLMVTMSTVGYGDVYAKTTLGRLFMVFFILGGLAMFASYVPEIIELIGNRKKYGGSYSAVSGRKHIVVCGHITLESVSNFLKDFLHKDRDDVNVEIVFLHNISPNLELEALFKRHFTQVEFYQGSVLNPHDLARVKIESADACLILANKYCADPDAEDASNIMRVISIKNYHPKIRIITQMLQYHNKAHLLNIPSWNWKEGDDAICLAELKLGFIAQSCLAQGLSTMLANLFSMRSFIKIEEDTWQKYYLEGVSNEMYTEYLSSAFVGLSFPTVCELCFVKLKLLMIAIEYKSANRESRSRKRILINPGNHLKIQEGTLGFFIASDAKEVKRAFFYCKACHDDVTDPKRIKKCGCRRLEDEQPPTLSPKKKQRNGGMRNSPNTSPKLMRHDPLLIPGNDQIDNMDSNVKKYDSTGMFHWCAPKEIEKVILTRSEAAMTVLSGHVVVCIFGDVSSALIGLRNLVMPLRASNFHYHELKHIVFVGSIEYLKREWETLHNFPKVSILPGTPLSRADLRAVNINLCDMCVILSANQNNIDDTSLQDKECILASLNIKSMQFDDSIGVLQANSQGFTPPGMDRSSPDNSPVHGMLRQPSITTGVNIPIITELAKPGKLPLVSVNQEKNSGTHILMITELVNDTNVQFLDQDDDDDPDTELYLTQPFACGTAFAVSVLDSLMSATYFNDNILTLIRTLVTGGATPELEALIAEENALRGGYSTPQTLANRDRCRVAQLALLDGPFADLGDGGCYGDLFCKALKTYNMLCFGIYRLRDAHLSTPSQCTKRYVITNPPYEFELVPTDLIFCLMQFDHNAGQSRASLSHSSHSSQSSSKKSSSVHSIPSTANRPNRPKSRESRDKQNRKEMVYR
BKCa (Mus musculus, UniProt Q08460), sequence (Q8CAE3 whole entry partner): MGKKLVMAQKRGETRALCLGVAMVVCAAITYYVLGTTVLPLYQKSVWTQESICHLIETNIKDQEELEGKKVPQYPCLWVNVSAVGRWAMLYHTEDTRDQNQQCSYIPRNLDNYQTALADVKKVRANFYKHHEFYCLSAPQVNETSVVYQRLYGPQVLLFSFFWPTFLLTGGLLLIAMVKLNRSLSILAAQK
Procedure: as §2, §3

IKCa mRNA = test: Real-time RT-PCR of IKCa mRNA in HCSMCs; type: cell-based, human; conditions: PDGF 20 ng/ml, at 6 h, n=5
Source text: (sense) and [NT] (antisense); for [NT] (sense) and [NT] (antisense).

[7] = among the groups (WT, ApoE KO vehicle, ApoE KO TRAM-34)
[8] = long-term treatment, anesthetized mice

With `Clc1ccccc1C(c1ccccc1)(c1ccccc1)n1cccn1` [TRAM-34, 1-[(2-chlorophenyl)diphenylmethyl]-1H-pyrazole] the “cell number of HCSMCs” value ([1]; PDGF + TRAM-34 at 10^-7 M) was 1.1±0.1 fold of control, the cell viability ([1]; PDGF+TRAM-34 or TRAM-34 alone, HCSMCs) was “did not affect cell viability” and the “effect on HCSMC proliferation” value ([1]; in the absence of PDGF) was “had no effect”. For the same compound, the HCSMC migration ([2]; PDGF + TRAM-34, 8-hour stimulation, n=4) was 2392 fold of control, the “PDGF-induced up-regulation of c-fos protein” value (c-fos) was “markedly reduced” and the deaths during treatment ([3]; 14-week treatment, unknown reasons, same in vehicle group) was “One mouse”. For the same compound, the plasma cholesterol levels ([3]; ApoE KO mice, TRAM-34 vs vehicle) was “no significant difference”, the body weight [3, 7] was “no significant differences” and the heart weight [3, 7] was “no significant differences”. The blood pressure [3, 8] was “unaltered”, the heart rate [3, 8] was “unaltered” and the “accumulation of macrophages in the plaques” value (ApoE knockout mice) was “decreased”. The “nitric oxide-mediated component of endothelium-dependent vasodilation” value (ApoE knockout mice) was “restored”, the “plasma level of MCP-1” value (ApoE knockout mice) was “reduced” and the “plasma level of TNF-alpha” value (ApoE knockout mice) was “reduced”. The “DNA synthesis (BrdU incorporation)” value ([4]; PDGF + TRAM-34, n=26) was 2.2±0.2 fold of control and the “effect on DNA synthesis” value ([4]; TRAM alone, no PDGF, n=6) was “had no effect”.

In the case of `COc1ccc(Cl)cc1C(=O)NCCc1ccc(S(=O)(=O)NC(=O)NC2CCCCC2)cc1` [Glibenclamide, reference compound], the “effect on PDGF-induced HCSMC proliferation” value ([1]; with PDGF, data not shown, n=4) is reported as “had no effect”.

For `C=C[C@@]1(C)C=C2CC[C@@H]3[C@](C)(CCC[C@@]3(C)C(=O)O)[C@H]2CC1` [pimaric acid], the vasodilation (BKCa [5]; CAD subjects) was 31±3%, the vasodilation (BKCa [5]; non-CAD subjects) was 56±6% and the “% max. dilation” value (BKCa [6]; ApoE KO mice) was 9±3%. The “% max. dilation” value (BKCa [6]; WT mice, 10^-5 M) was 55±10%.

With “platelet-derived growth factor-BB [PDGF]” the “cell number of HCSMCs” value ([1]; PDGF alone (20 ng/mL)) was 1.6±0.1 fold of control, the HCSMC migration ([2]; PDGF alone (20 ng/ml), 8-hour stimulation, n=10) was 32±4 fold of control and the “IKCa mRNA expression, max response” value (IKCa mRNA) was 4.2±1.0 fold. The “DNA synthesis (BrdU incorporation)” value ([4]; PDGF alone, n=26) was 2.8±0.3 fold of control.
